In ChEMBL document CHEMBL4385660, “5-Chloro-2-thiophenyl-1,2,3-triazolylmethyldihydroquinolines as dual inhibitors of Mycobacterium tuberculosis and influenza virus: Synthesis and evaluation” (Bioorg Med Chem Lett, 2019):
≈ marks a conversion by molar mass, not a printed value.

Assays:
[1] = test system: Mycobacterium tuberculosis; assay: Antimycobacterial against Mycobacterium tuberculosis H37Rv incubated for 7 days by MABA assay; assay type: functional; conditions: 168 h
[2] = Selectivity index, ratio of CC50 for cytotoxicity in MDCK cells to IC50 for antiviral activity against Influenza A virus (A/Puerto Rico/8/1934(H1N1)) infected in MDCK cells; assay type: toxicity, cell-based; conditions: dog, read-out: Ratio CC50/IC50
[3] = Cytotoxicity in MDCK cells assessed as reduction in cell viability incubated for 48 hrs by MTT assay; assay type: cell-based, Canis lupus familiaris; conditions: dog
Influenza A virus = assay: Antiviral activity against Influenza A virus (A/Puerto Rico/8/1934(H1N1)) infected in MDCK cells assessed as reduction in virus titer using cells pre-treated with compound followed by virus infection for 24 hrs by hemagglutination test; assay type: functional, organism-based
[4] = test system: Mycobacterium tuberculosis; assay: Antimycobacterial against Mycobacterium tuberculosis; assay type: functional

SMILES	MIC [1]	selectivity ratio [2]	CC50 at 48 h [3]	IC50 (Influenza A virus)	MIC [4]
Fc1ccc(-c2cn(CC3=C(Cl)c4ccc(-c5cccs5)nc4CC3)nn2)cc1	12.5 µg/mL (≈ 29.6 µM)	1	100 µg/mL (≈ 236 µM)	80 µg/mL (≈ 189 µM)	
FC(F)(F)c1cc(-c2cn(CC3=C(Cl)c4ccc(-c5cccs5)nc4CC3)nn2)cc(C(F)(F)F)c1	25 µg/mL (≈ 46.2 µM)	1	35 µg/mL (≈ 64.7 µM)	> 30 µg/mL	
COc1ccc(-c2cn(CC3=C(Cl)c4ccc(-c5cccs5)nc4CC3)nn2)cc1	25 µg/mL (≈ 57.5 µM)	2	> 300 µg/mL	160 µg/mL (≈ 368 µM)	
CC[C@@H](CO)NCCN[C@@H](CC)CO [ETHAMBUTOL]	3.13 µg/mL (≈ 15.3 µM)				
O=C1c2ccccc2C(=O)N1Cc1cn(CC2=C(Cl)c3ccc(-c4cccs4)nc3CC2)nn1	25 µg/mL (≈ 51.2 µM)	2	> 300 µg/mL	200 µg/mL (≈ 410 µM)	
CCCCCc1cn(CC2=C(Cl)c3ccc(-c4cccs4)nc3CC2)nn1	6.25 µg/mL (≈ 15.7 µM)	3	50 µg/mL (≈ 125 µM)	17 µg/mL (≈ 42.6 µM)	
ClC1=C(Cn2cc(-c3cc4ccccc4c4ccccc34)nn2)CCc2nc(-c3cccs3)ccc21	25 µg/mL (≈ 49.5 µM)	1	> 300 µg/mL	> 300 µg/mL	
ClC1=C(Cn2cc(C3CC3)nn2)CCc2nc(-c3cccs3)ccc21	6.25 µg/mL (≈ 16.9 µM)	1	> 300 µg/mL	> 300 µg/mL	
FC(F)(F)Oc1ccc(-c2cn(CC3=C(Cl)c4ccc(-c5cccs5)nc4CC3)nn2)cc1	25 µg/mL (≈ 51.1 µM)	5	> 300 µg/mL	65 µg/mL (≈ 133 µM)	
CN(C)Cc1ccc(-c2cc3cc(Br)ccc3nc2OCc2ccncc2)cc1					0.43 µg/mL (≈ 0.959 µM)
ClC1=C(Cn2cc(-c3ccsc3)nn2)CCc2nc(-c3cccs3)ccc21	25 µg/mL (≈ 60.8 µM)	15	> 300 µg/mL	195 µg/mL (≈ 475 µM)	
CC(C)(C)c1nn(-c2cc(Cl)cc(Cl)c2OCc2cn(CC3=C(Cl)c4ccc(-c5cccs5)nc4CC3)nn2)c(=O)o1	25 µg/mL (≈ 38.8 µM)	1	> 300 µg/mL	> 300 µg/mL	
O=[N+]([O-])c1ccc(-c2cn(CC3=C(Cl)c4ccc(-c5cccs5)nc4CC3)nn2)cc1	12.5 µg/mL (≈ 27.8 µM)	1	40 µg/mL (≈ 88.9 µM)	> 30 µg/mL	
ClC1=C(Cn2cc(-c3ccc(Cl)c(Cl)c3)nn2)CCc2nc(-c3cccs3)ccc21	25 µg/mL (≈ 52.8 µM)	12	> 300 µg/mL	26 µg/mL (≈ 54.9 µM)	
FC(F)(F)c1ccccc1-c1cn(CC2=C(Cl)c3ccc(-c4cccs4)nc3CC2)nn1	12.5 µg/mL (≈ 26.4 µM)	2	> 300 µg/mL	160 µg/mL (≈ 338 µM)	
NNC(=O)c1ccncc1 [ISONIAZID]	0.1 µg/mL (≈ 0.729 µM)				
CC(C)(C)c1ccc(-c2cn(CC3=C(Cl)c4ccc(-c5cccs5)nc4CC3)nn2)cc1	3.12 µg/mL (≈ 6.77 µM)	3	172 µg/mL (≈ 373 µM)	64 µg/mL (≈ 139 µM)	
CO[C@H]1/C=C/O[C@@]2(C)Oc3c(C)c(O)c4c(O)c(c(/C=N/N5CCN(C)CC5)c(O)c4c3C2=O)NC(=O)/C(C)=C\C=C\[C@H](C)[C@H](O)[C@@H](C)[C@@H](O)[C@@H](C)[C@H](OC(C)=O)[C@@H]1C [RIFAMPIN]	0.2 µg/mL (≈ 0.243 µM)				
CCC(CC)O[C@@H]1C=C(C(=O)O)C[C@H](N)[C@H]1NC(C)=O [OSELTAMIVIR CARBOXYLATE]		> 500	> 30 µg/mL	0.06 µg/mL (≈ 0.211 µM)	
CN(C)CCc1ccc(-c2cc3cc(Br)ccc3nc2OCc2cccc3ccccc23)cc1					0.43 µg/mL (≈ 0.841 µM)
O=C(O)c1cn(C2CC2)c2cc(N3CCNCC3)c(F)cc2c1=O [CIPROFLOXACIN]	1.56 µg/mL (≈ 4.71 µM)				
Fc1ccc(-c2cn(CC3=C(Cl)c4ccc(-c5cccs5)nc4CC3)nn2)c(F)c1	25 µg/mL (≈ 56.7 µM)	1	188 µg/mL (≈ 426 µM)	165 µg/mL (≈ 374 µM)	
CC(N)C12CC3CC(CC(C3)C1)C2 (configuration not stated) [RIMANTADINE]		6	62 µg/mL (≈ 346 µM)	10 µg/mL (≈ 55.8 µM)	
